# Assays:
# [1] = target: T1, human FXR alpha (hFXRα)-LBD / SRC2-3 peptide (Homo sapiens, UniProt Q96RI1); assay: AlphaScreen assay, recruitment of coactivator peptide SRC2-3 to His-hFXRα-LBD; format: biochemical
# T1 construct: 100 nmol/L 6*His-hFXRα-LBD and 100 nmol/L biotinylated co-factor peptide
# T1 sequence (Q96RI1 262-486 limits assumed): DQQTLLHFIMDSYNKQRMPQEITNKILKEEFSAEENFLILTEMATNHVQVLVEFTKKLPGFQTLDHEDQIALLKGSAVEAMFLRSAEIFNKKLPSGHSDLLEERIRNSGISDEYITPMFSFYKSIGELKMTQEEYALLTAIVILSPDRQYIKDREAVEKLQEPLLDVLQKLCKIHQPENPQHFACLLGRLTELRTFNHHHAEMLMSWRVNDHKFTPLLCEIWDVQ
# Method: (§1) An AlphaScreen technology-based assay was performed according to the manufacturer’s instructions with a minor revision. Briefly, the experiment was conducted with compounds at the indicated concentrations, 100 nmol/L 6*His-hFXRα-LBD and 100 nmol/L biotinylated co-factor peptide in the buffer containing 50 mmol/L MOPS, 50 μmol/L CHAPS, 50 mmol/L NaF, and 0.1 mg/mL BSA, pH 7.4. The mixture was incubated with 50 μg/mL nickel acceptor beads and 50 μg/mL streptavidin donor beads in a 384-well plate under green light in the dark at room temperature, before conducting fluorescence measurement with excitation at 680 nm and emission at 550 nm on an Envision microplate analyzer (PE 2102-8340, PerkinElmer Life Sciences).
# [2] = target: T2, human FXR alpha (hFXRα)-LBD / NcoR2 peptide (Homo sapiens, UniProt Q96RI1); assay: AlphaScreen assay, recruitment of corepressor peptide NcoR2 to His-hFXRα-LBD; format: biochemical; settings: compound alone incubated with His-hFXRα-LBD; read-out: EC50 in recruiting the NcoR2 peptide
# T2 construct: 100 nmol/L 6*His-hFXRα-LBD and 100 nmol/L biotinylated co-factor peptide
# T2 sequence (Q96RI1 262-486 limits assumed): T1 sequence (Q96RI1 262-486 limits assumed)
# Method: as §1
# MCD diet-induced MASH = MCD diet-induced MASH mice, long-term model; format: in vivo, mouse; settings: oral, 4 weeks, DC646 10 mg/kg, GUDCA 50 mg/kg
# Method: For the long-term MASH model, 8- to 10-week-old male C57BL/6 J mice were fed with an MCS diet or MCD diet for 2 weeks, before the MCD models were administered with vehicle or GUDCA (50 mg/kg), OCA (30 mg/kg), and DC646 (10 mg/kg) for 4 weeks. The serum, liver, and intestine were collected 2 h after the final dosing. Male Fxr^△IE mice (8–10 weeks old) were fed with a GAN diet for 20 weeks and administered with vehicle or DC646 (10 mg/kg) from the 12th week for 8 weeks. The serum, liver, and intestine were collected 2 h after the final dosing.
# The intestine and liver were frozen in liquid nitrogen and stored at −80°C. RNA was extracted, and complementary DNA was synthesized from 1 μg total RNA. RT-qPCR was performed on a Bio-Rad CFX384 Touch detection system (Bio-Rad). The primer sequences for RT-qPCR are shown in Supplementary Table S5. RNA levels were analyzed by 2-^ΔΔCt, normalized to 18S ribosomal RNA and expressed as fold change relative to the control group.
# Hepatic TG and TC, and plasma ALT and AST levels were measured using commercial kits from Nanjing Jiancheng Bioengineering Institute according to the manufacturer’s instructions. To measure hepatic TG contents, liver tissues (~10 mg) were homogenized in 100 μL 1% TritonX-100 and centrifuged at 3000 rpm for 10 min. Supernatants were collected, and 2 μL samples were incubated with 200 μL reaction buffer at 37°C for 10 min. Hepatic TG or TC levels were read at 510 or 500 nm using a microplate reader (Versamax, Molecular Devices) and normalized using the protein concentration. To measure plasma ALT and AST levels, reaction buffer 1 and reaction buffer 2 were mixed at a ratio of 1:1, before adding 2 μL plasma sample and 200 μL mixed reaction buffer in a 96-well plate. The data were acquired using the kinetic mode with an interval of 30 s and 31 total reads at 340 nm using a microplate reader (Versamax, Molecular Devices).
# Tissue specimens were fixed in 10% formalin for 12–24 h before being dehydrated and paraffin-embedded. The sections were stained with H&E. The NAS was calculated as a summary score including individual components of steatosis (0–3), lobular inflammation (0–3), and hepatocyte ballooning (0–2) for each liver section by a blinded liver pathologist, and the results were reviewed by a blinded hepatologist according to a previous protocol. To visualize liver fibrosis, paraffin-embedded tissue samples were stained with Sirius Red to characterize the collagen deposition. To visualize lipid accumulation and inflammation in the liver, frozen liver sections were stained with Oil Red O and F4/80, and images were acquired using a Leica DM6B laser microdissection system. At least three discontinuous liver sections were evaluated for each mouse.
compound,measurement,setting,value
"N,N'-((1^2S,1^4R,14^2S,14^4R,4S,17S)-5,13,18,26-tetraoxo-2^1,15^1-bis(triisopropylsilyl)-2^1H,15^1H-6,19-dioxa-12,25-diaza-1(4,2),14(2,4)-dimorpholina-2,15(4,3)-diindolacyclohexacosaphane-4,17-diyl)bis(1,1,1-trifluoromethanesulfonamide) [DC644]",Inhibition of SRC2-3 recruitment in the presence of CDCA (library screen),[1]; DC644 at 10 μmol/L compared with GUDCA and GlyMCA at 50 μmol/L,more potent
Ivermectin [reference compound],EC50,"[1]; compound alone incubated with His-hFXRα-LBD, read-out: EC50 in recruiting the SRC2-3 peptide",960 nM
same,EC50,[2],2190 nM
"C[C@H](CCC(=O)NCC(=O)O)[C@H]1CC[C@H]2[C@@H]3[C@@H](O)C[C@@H]4C[C@H](O)CC[C@]4(C)[C@H]3CC[C@]12C [GUDCA, glycoursodeoxycholic acid, reference compound]",Hepatic mRNA levels of inflammation-related genes,MCD diet-induced MASH,significantly decreased
same,Hepatic mRNA levels of lipid metabolism-related genes / hepatic lipid accumulation,MCD diet-induced MASH; OCA 30 mg/kg,only had minor effect
"CC[C@H]1[C@@H](O)[C@@H]2[C@H](CC[C@]3(C)[C@@H]([C@H](C)CCC(=O)O)CC[C@@H]23)[C@@]2(C)CC[C@@H](O)C[C@@H]12 [OCA, reference compound]",Hepatic mRNA levels of lipid metabolism-related genes / hepatic lipid accumulation,MCD diet-induced MASH; OCA 30 mg/kg,markedly downregulated
same,Serum alanine aminotransferase (ALT) level,MCD diet-induced MASH; OCA 30 mg/kg,cannot improve
